Experimental data: ChEMBL document CHEMBL4651402, “Screening of ~5500 FDA-approved drugs and clinical candidates for anti-SARS-CoV-2 activity” (2021)

System: SARS-CoV-2
Experiment: microbe, parasite or virus in culture
Settings: Severe acute respiratory syndrome coronavirus 2, Vero C1008, 48 h

SMILES | IC50 [µM] | IC50 (read-out: pIC50 (converted)) [µM]
OC[C@H]1O[C@@H]2O[C@H]3[C@H](O)[C@@H](O)[C@@H](O[C@H]4[C@H](O)[C@@H](O)[C@@H](O[C@H]5[C@H](O)[C@@H](O)[C@@H](O[C@H]6[C@H](O)[C@@H](O)[C@@H](O[C@H]7[C@H](O)[C@@H](O)[C@@H](O[C@H]8[C@H](O)[C@@H](O)[C@@H](O[C@H]1[C@H](O)[C@H]2O)O[C@@H]8CO)O[C@@H]7CO)O[C@@H]6CO)O[C@@H]5CO)O[C@@H]4CO)O[C@@H]3CO [BETADEX] | > 20 | > 20
CNCCc1ccccn1 [BETAHISTINE] | > 20 | > 20
C[N+](C)(C)CC(=O)O [BETAINE] | > 20 | > 20
CC[C@H](O)C(C[C@@H](C)N(C)C)(c1ccccc1)c1ccccc1 [BETAMETHADOL] | > 20 | > 20
CCC(=O)OCC(=O)[C@@]1(OC(=O)CC)[C@@H](C)C[C@H]2[C@@H]3CCC4=CC(=O)C=C[C@]4(C)[C@@]3(F)[C@@H](O)C[C@@]21C [BETAMETHASONE DIPROPIONATE] | > 20 | > 20
O=C(O)CCNC(=O)c1ccccc1 [BETAMIPRON] | > 20 | > 20
Oc1ccc2ccccc2c1 [BETANAPHTHOL] | > 20 | > 20
CC(C)NCC(O)COc1ccc(CCOCC2CC2)cc1 (stereo not given) [BETAXOLOL] | > 20 | > 20
NCCc1cc[nH]n1 [BETAZOLE] | > 20 | > 20
CC(C[N+](C)(C)C)OC(N)=O (stereo not given) [BETHANECHOL] | > 20 | > 20
COc1ccc(NC(=O)c2ccc(C(=N)N(C)C)cc2)c(C(=O)Nc2ccc(Cl)cn2)c1 [BETRIXABAN] | > 20 | > 20
C=C(C)[C@@H]1CC[C@]2(CO)CC[C@]3(C)[C@H](CC[C@@H]4[C@@]5(C)CC[C@H](O)C(C)(C)[C@@H]5CC[C@]43C)[C@@H]12 [BETULIN] | > 20 | > 20
COc1ccc(CCNCC(O)COc2cccc(C)c2)cc1OC (stereo not given) [BEVANTOLOL] | > 20 | > 20
C=C(C)[C@@H]1CC[C@]2(C(=O)O)CC[C@]3(C)[C@H](CC[C@@H]4[C@@]5(C)CC[C@H](OC(=O)CC(C)(C)C(=O)O)C(C)(C)[C@@H]5CC[C@]43C)[C@@H]12 [BEVIRIMAT] | > 20 | > 20
C=C(c1ccc(C(=O)O)cc1)c1cc2c(cc1C)C(C)(C)CCC2(C)C [BEXAROTENE] | > 20 | > 20
CC(C)(Oc1ccc(CCNC(=O)c2ccc(Cl)cc2)cc1)C(=O)O [BEZAFIBRATE] | > 20 | > 20
COc1ccc(-c2ccc3ncc4c(c3c2)n(-c2ccc(N3CCNCC3)c(C(F)(F)F)c2)c(=O)n4C)cn1 [BGT-226 FREE BASE] | > 20 | > 20
CC(O)(CS(=O)(=O)c1ccc(F)cc1)C(=O)Nc1ccc(C#N)c(C(F)(F)F)c1 (stereo not given) [BICALUTAMIDE] | > 20 | > 20
Cc1ccc(C23CNCC2C3)cc1 (stereo not given) [BICIFADINE] | > 20 | > 20
CN1CCc2cc3c(cc2[C@H]1[C@@H]1OC(=O)c2c1ccc1c2OCO1)OCO3 [BICUCULLINE] | > 20 | > 20
CCN(CC)CCOC(=O)C(c1ccccc1)N1CCCCC1 (stereo not given) [BIETAMIVERINE] | > 20 | > 20
c1ccc(-c2ccc(C(c3ccccc3)n3ccnc3)cc2)cc1 (stereo not given) [BIFONAZOLE] | > 20 | > 20

SMILES | IC50 [µM] | IC50 (read-out: pIC50 (converted)) [µM]
COc1c(C)cnc(Cn2cnc3c(Cl)nc(N)nc32)c1C [BIIB021] | > 20 | > 20
C=CC1=C(C)/C(=C/c2[nH]c(Cc3[nH]c(/C=C4\NC(=O)C(C)=C4C=C)c(C)c3CCC(=O)O)c(CCC(=O)O)c2C)NC1=O [BILIRUBIN] | > 20 | > 20
CCN1c2ncc(CCOc3cc[n+]([O-])c4ccccc34)cc2C(=O)N(C)c2cccnc21 [BILR 355] | > 20 | > 20
Nc1cc(C(F)(F)F)c(-c2nc(N3CCOCC3)nc(N3CCOCC3)n2)cn1 [BIMIRALISIB] | > 20 | > 20
O=C(O)Cc1cccc(-c2cc(CCCCCCc3ccc(O[C@H]4O[C@H](CO)[C@@H](O)[C@H](O)[C@@H]4O)c(-c4cccc(CC(=O)O)c4)c3)ccc2O[C@H]2O[C@H](CO)[C@@H](O)[C@H](O)[C@@H]2O)c1 [BIMOSIAMOSE] | > 20 | > 20
Cn1cnc2c(F)c(Nc3ccc(Br)cc3F)c(C(=O)NOCCO)cc21 [BINIMETINIB] | > 20 | > 20
Cc1sc2c(c1C)C(c1ccc(Cl)cc1)=N[C@@H](CC(=O)Nc1ccc(O)cc1)c1nnc(C)n1-2 [BIRABRESIB] | > 20 | > 20
CC[C@H](NC(=O)[C@H](C)NC)C(=O)N1C[C@@H](O)C[C@H]1Cc1c(-c2[nH]c3cc(F)ccc3c2C[C@@H]2C[C@H](O)CN2C(=O)[C@H](CC)NC(=O)[C@H](C)NC)[nH]c2cc(F)ccc12 [BIRINAPANT] | > 20 | > 20
CC(=O)Oc1ccc(C(c2ccc(OC(C)=O)cc2)c2ccccn2)cc1 [BISACODYL] | > 20 | > 20
CC(C)(C)CC(C)(C)c1cc(Cc2cc(C(C)(C)CC(C)(C)C)cc(-n3nc4ccccc4n3)c2O)c(O)c(-n2nc3ccccc3n2)c1 [BISOCTRIZOLE] | > 20 | > 20
CC(C)NCC(O)COc1ccc(COCCOC(C)C)cc1 (stereo not given) [BISOPROLOL] | > 20 | > 20
[O-][S+](c1cc(Cl)cc(Cl)c1O)c1cc(Cl)cc(Cl)c1O [BITHIONOLOXIDE] | > 20 | > 20
Oc1c(Cl)cc(Cl)cc1Sc1cc(Cl)cc(Cl)c1O [BITHIONOL] | > 20 | > 20
CC(C)(C)c1cnc(CSc2cnc(NC(=O)C3CCNCC3)s2)o1 [BMS-387032] | > 20 | > 20
COc1cccc(Nc2ncnn3ccc(CN4CC[C@@H](N)[C@H](O)C4)c23)c1 [BMS-690514] | > 20 | > 20
Cn1c(N2CCCCS2(=O)=O)nc(C(=O)NCc2ccc(F)cc2)c(O)c1=O [BMS-707035] | > 20 | > 20
CCOc1ccn(-c2ccc(F)cc2)c(=O)c1C(=O)Nc1ccc(Oc2ccnc(N)c2Cl)c(F)c1 [BMS-777607] | > 20 | > 20
CCn1c(C(=O)N(C2CC2)C2CC2)cc2c3c(ncn3C)c(Nc3cc(C)n(C)n3)nc21 [BMS-911543] | > 20 | > 20
Cc1c(-c2c(F)cc(C(N)=O)c3[nH]c4c(c23)CC[C@H](C(C)(C)O)C4)cccc1-n1c(=O)c2cccc(F)c2n(C)c1=O [BMS-986142] | > 20 | > 20
OC(CCCN1CCN(c2ncc(F)cn2)CC1)c1ccc(F)cc1 (stereo not given) [BMY-14802] | > 20 | > 20
CC(C)(C)NC(=O)N[C@H](C(=O)N1C[C@H]2[C@@H]([C@H]1C(=O)NC(CC1CCC1)C(=O)C(N)=O)C2(C)C)C(C)(C)C (stereo not given in full) [BOCEPREVIR] | > 20 | > 20
COc1ccccc1Oc1c(NS(=O)(=O)c2ccc(C(C)(C)C)cc2)nc(-c2ncccn2)nc1OCCO [BOSENTAN] | > 20 | > 20

SMILES | IC50 [µM] | IC50 (read-out: pIC50 (converted)) [µM]
COc1cc(Nc2c(C#N)cnc3cc(OCCCN4CCN(C)CC4)c(OC)cc23)c(Cl)cc1Cl [BOSUTINIB] | > 20 | > 20
CC#CC(=O)N[C@H]1CCCN(c2c(F)cc(C(N)=O)c3[nH]c(C)c(C)c23)C1 [BRANEBRUTINIB] | > 20 | > 20
Cc1nc(COc2ccc(C[C@H](NC(=O)O[C@H]3CO[C@H]4OCC[C@H]43)[C@H](O)CN(CC(C)C)S(=O)(=O)c3ccc4c(c3)OCO4)cc2)cs1 [BRECANAVIR] | > 20 | > 20
CCC12CCN(CC3(O)CC3)C(Cc3ccc(O)cc31)C2(C)C (stereo not given) [BREMAZOCINE] | > 20 | > 20
CC(C)(C)OC(=O)c1ncn2c1[C@@H]1CCCN1C(=O)c1c(Br)cccc1-2 [BRETAZENIL] | > 20 | > 20
CC[N+](C)(C)Cc1ccccc1Br [BRETYLIUM] | > 20 | > 20
Brc1c(NC2=NCCN2)ccc2nccnc12 [BRIMONIDINE] | > 20 | > 20
CCN[C@H]1CN(CCCOC)S(=O)(=O)c2sc(S(N)(=O)=O)cc21 [BRINZOLAMIDE] | > 20 | > 20
Cc1cc2c(F)c(Oc3ncnn4cc(OC[C@@H](C)OC(=O)[C@H](C)N)c(C)c34)ccc2[nH]1 [BRIVANIB ALANINATE] | > 20 | > 20
Cc1cc2c(F)c(Oc3ncnn4cc(OC[C@@H](C)O)c(C)c34)ccc2[nH]1 [BRIVANIB] | > 20 | > 20
CCC[C@@H]1CC(=O)N([C@@H](CC)C(N)=O)C1 [BRIVARACETAM] | > 20 | > 20
O=c1[nH]c(=O)n([C@H]2C[C@H](O)[C@@H](CO)O2)cc1/C=C/Br [BRIVUDINE] | > 20 | > 20
CC1(C)OC(=O)Nc2ccc(Br)cc21 [BROFOXINE] | > 20 | > 20
O=C1CN=C(c2ccccn2)c2cc(Br)ccc2N1 [BROMAZEPAM] | > 20 | > 20
CCN(CC)C(=O)N[C@H]1C=C2c3cccc4[nH]c(Br)c(c34)C[C@H]2N(C)C1 [BROMERGURIDE] | > 20 | > 20
Nc1c(CC(=O)O)cccc1C(=O)c1ccc(Br)cc1 [BROMFENAC] | > 20 | > 20
CN(Cc1cc(Br)cc(Br)c1N)C1CCCCC1 [BROMHEXINE] | > 20 | > 20
O=C1c2ccccc2C(=O)C1c1ccc(Br)cc1 [BROMINDIONE] | > 20 | > 20
CC(C)C(Br)C(=O)NC(N)=O (stereo not given) [BROMISOVALUM] | > 20 | > 20
O=C(Nc1ccc(Cl)cc1)c1cc(Br)ccc1O [BROMOCHLOROSALICYLANILIDE] | > 20 | > 20
O=C(NO)c1cc(Br)ccc1O [BROMOCYL] | > 20 | > 20
